According to US20040048790A1, “Inducing cellular immune responses to p53 using peptide and nucleic acid compositions” (priority 1999, published 2004):
No end group written: not given here.

Experiments:
DRB1*0301 (DR3) = DRB1*0301 (DR3) (Homo sapiens, UniProt P01903+P01911, A100K/A102G/A103R/A169T/F55Y/I96L/K41T/L162R/M171V/P40S/Q125H/Q178H/Q39Y/R42S/S66N/T106N/T262R/W38E/Y61H); type: binding
B*3501 = B*3501 (Homo sapiens, UniProt P01889, A329T/A93T/A95T/C349S/D201E/D98Y/E176V/E187L/E204Q/E69T/I218V/K202T/L119I/Q94N/R155S/R180L/S121R/S35A/S48A/T118I/V127L/V306I/V36M/Y140S/Y91F); experiment: biochemical
B*5401 = B*5401 (Homo sapiens, UniProt P01889, A329T/C349S/D138N/D201E/E176V/E187T/E204Q/E69G/I76V/K202T/L119W/R155S/R180L/S121T/S35A/S48A/V127L/V306I/V36M/Y140L); experiment: biochemical
B*5301 = B*5301 (Homo sapiens, UniProt P01889, A329T/A93T/A95T/C349S/D201E/D98Y/E176V/E187L/E204Q/E69T/G107R/I218V/K202T/L105A/L119I/N104I/Q94N/R106L/R155S/R180L/S101N/S121R/S35A/S48A/T118I/V127L/V306I/V36M/Y140S/Y91F); experiment: biochemical
HLA-B*0702 = HLA-B*0702 (Homo sapiens, UniProt P01889); experiment: biochemical

Chain of DRB1*0301 (DR3) (P01903 26-254 limits assumed, other chains not shown): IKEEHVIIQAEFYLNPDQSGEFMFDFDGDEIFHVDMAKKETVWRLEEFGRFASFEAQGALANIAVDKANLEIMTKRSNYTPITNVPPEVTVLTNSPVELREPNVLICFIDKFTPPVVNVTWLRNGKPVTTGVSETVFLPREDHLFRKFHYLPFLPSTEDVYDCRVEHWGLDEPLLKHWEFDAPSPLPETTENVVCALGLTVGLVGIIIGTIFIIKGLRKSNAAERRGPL

Compound: CC(C)C[C@H](NC(=O)[C@H](CC(N)=O)NC(=O)CNC(=O)[C@@H](N)CCC(=O)O)C(=O)N[C@@H](CCCNC(=N)N)C(=O)N[C@H](C(=O)N[C@@H](CCC(=O)O)C(=O)N[C@@H](Cc1ccc(O)cc1)C(=O)N[C@@H](CC(C)C)C(=O)N[C@@H](CC(=O)O)C(=O)N[C@@H](CC(=O)O)C(=O)N[C@@H](CCCNC(=N)N)C(=O)N[C@@H](CC(N)=O)C(=O)N[C@H](C(=O)N[C@@H](Cc1ccccc1)C(=O)O)[C@@H](C)O)C(C)C
- IC50 (DRB1*0301 (DR3)): > 10 µM

Compound: CC[C@H](C)[C@H](NC(=O)[C@H](CCC(N)=O)NC(=O)[C@H](CC(C)C)NC(=O)[C@@H](NC(=O)[C@H](Cc1ccccc1)NC(=O)[C@H](Cc1ccc(O)cc1)NC(=O)[C@H](CCC(=O)O)NC(=O)CN)[C@@H](C)O)C(=O)N[C@@H](CCCNC(=N)N)C(=O)NCC(=O)N[C@@H](CCCNC(=N)N)C(=O)N[C@@H](CCC(=O)O)C(=O)N[C@@H](CCCNC(=N)N)C(=O)N[C@@H](Cc1ccccc1)C(=O)N[C@@H](CCC(=O)O)C(=O)O
- IC50 (DRB1*0301 (DR3)): > 10 µM

Compound: CC[C@H](C)[C@H](NC(=O)[C@H](CCC(N)=O)NC(=O)[C@H](CC(C)C)NC(=O)[C@@H](NC(=O)[C@H](Cc1ccccc1)NC(=O)[C@H](Cc1ccc(O)cc1)NC(=O)[C@H](CCC(=O)O)NC(=O)CNC(=O)[C@H](CC(=O)O)NC(=O)[C@H](CC(C)C)NC(=O)[C@@H]1CCCN1C(=O)[C@H](CCCCN)NC(=O)[C@@H](N)CCCCN)[C@@H](C)O)C(=O)N[C@@H](CCCNC(=N)N)C(=O)NCC(=O)O
- IC50 (DRB1*0301 (DR3)): > 10 µM

Compound: CC[C@H](C)[C@H](NC(=O)[C@@H](NC(=O)[C@@H](N)CC(C)C)[C@@H](C)O)C(=O)N[C@H](C(=O)N[C@H](C(=O)N[C@@H](CC(C)C)C(=O)N[C@@H](CCC(=O)O)C(=O)N[C@@H](CC(=O)O)C(=O)N[C@@H](CO)C(=O)N[C@@H](CO)C(=O)NCC(=O)N[C@@H](CC(N)=O)C(=O)N[C@@H](CC(C)C)C(=O)N[C@@H](CC(C)C)C(=O)NCC(=O)O)[C@@H](C)O)[C@@H](C)CC
- IC50 (DRB1*0301 (DR3)): > 10 µM

Compound: CC[C@H](C)[C@H](NC(=O)[C@H](C)NC(=O)[C@@H](N)CCSC)C(=O)N[C@@H](Cc1ccc(O)cc1)C(=O)N[C@@H](CCCCN)C(=O)N[C@@H](CCC(N)=O)C(=O)N[C@@H](CO)C(=O)N[C@@H](CCC(N)=O)C(=O)N[C@@H](Cc1c[nH]cn1)C(=O)N[C@@H](CCSC)C(=O)N[C@H](C(=O)N[C@@H](CCC(=O)O)C(=O)N[C@H](C(=O)N[C@H](C(=O)N[C@@H](CCCNC(=N)N)C(=O)O)C(C)C)C(C)C)[C@@H](C)O
- IC50 (DRB1*0301 (DR3)): > 10 µM

Compound: CC[C@H](C)[C@H](NC(=O)[C@@H](NC(=O)[C@@H](NC(=O)[C@H](CS)NC(=O)[C@H](CC(=O)O)NC(=O)[C@H](CO)NC(=O)CNC(=O)[C@@H](NC(=O)[C@H](CCC(=O)O)NC(=O)[C@@H]1CCCN1C(=O)[C@@H]1CCCN1)C(C)C)[C@@H](C)O)[C@@H](C)O)C(=O)N[C@@H](Cc1c[nH]cn1)C(=O)N[C@@H](Cc1ccc(O)cc1)C(=O)N[C@@H](CC(N)=O)C(=O)N[C@@H](Cc1ccc(O)cc1)C(=O)O
- IC50 (DRB1*0301 (DR3)): 7.9 µM

Compound: CC(C)C[C@H](NC(=O)[C@H](CCC(N)=O)NC(=O)[C@@H](NC(=O)[C@@H]1CCCN1)C(C)C)C(=O)N[C@@H](Cc1c[nH]c2ccccc12)C(=O)N[C@H](C(=O)N[C@@H](CC(=O)O)C(=O)N[C@@H](CO)C(=O)N[C@H](C(=O)N1CCC[C@H]1C(=O)N1CCC[C@H]1C(=O)N1CCC[C@H]1C(=O)NCC(=O)N[C@H](C(=O)N[C@@H](CCCNC(=N)N)C(=O)O)[C@@H](C)O)[C@@H](C)O)C(C)C
- IC50 (DRB1*0301 (DR3)): > 10 µM

Compound: CC[C@H](C)[C@H](NC(=O)[C@H](C)NC(=O)[C@H](CCC(N)=O)NC(=O)[C@H](CO)NC(=O)[C@@H]1CCCN1C(=O)[C@H](CC(C)C)NC(=O)[C@@H]1CCCN1C(=O)[C@@H](N)Cc1ccccc1)C(=O)O [p53.33.F1]
- IC50 (B*3501): 0.72 µM
- IC50 (B*5401): 0.083 µM

Compound: CC[C@H](C)[C@H](NC(=O)[C@@H]1CCCN1C(=O)[C@@H]1CCCN1C(=O)[C@H](C)NC(=O)[C@H](C)NC(=O)[C@H](CCC(=O)O)NC(=O)[C@@H]1CCCN1C(=O)[C@H](CCSC)NC(=O)[C@H](CCCNC(=N)N)NC(=O)[C@@H]1CCCN1C(=O)[C@@H](N)Cc1ccccc1)C(=O)O [p53.63.F1111]
- IC50 (B*3501): 5.54 µM
- IC50 (B*5401): 0.0029 µM
- IC50 (B*5301): 5.47 µM

Compound: CC[C@H](C)[C@H](NC(=O)[C@H](C)NC(=O)[C@@H]1CCCN1C(=O)[C@H](C)NC(=O)[C@@H]1CCCN1C(=O)[C@H](C)NC(=O)[C@@H](NC(=O)[C@@H]1CCCN1C(=O)[C@@H]1CCCN1C(=O)[C@@H](N)Cc1ccccc1)C(C)C)C(=O)O [p53.70.F1110]
- IC50 (B*5401): 0.063 µM
- IC50 (HLA-B*0702): 0.29 µM
- IC50 (B*5301): 2.91 µM

Compound: CC[C@H](C)[C@H](NC(=O)[C@@H]1CCCN1C(=O)[C@@H](NC(=O)[C@@H]1CCCN1C(=O)[C@H](C)NC(=O)[C@H](C)NC(=O)[C@@H]1CCCN1C(=O)[C@H](C)NC(=O)[C@@H]1CCCN1C(=O)[C@@H](N)Cc1ccccc1)[C@@H](C)O)C(=O)O [p53.74.F1110]
- IC50 (B*3501): 0.277 µM
- IC50 (B*5401): 0.0053 µM
- IC50 (HLA-B*0702): 0.0015 µM
- IC50 (B*5301): 0.127 µM

Compound: CC[C@H](C)[C@H](NC(=O)[C@@H]1CCCN1C(=O)[C@@H](NC(=O)[C@@H]1CCCN1C(=O)[C@H](C)NC(=O)[C@H](C)NC(=O)[C@@H]1CCCN1C(=O)[C@@H](N)Cc1ccccc1)[C@@H](C)O)C(=O)O [p53.76.F118]
- IC50 (B*3501): 0.655 µM
- IC50 (B*5401): 0.0031 µM
- IC50 (HLA-B*0702): 0.128 µM

Compound: CC[C@H](C)[C@H](NC(=O)[C@@H]1CCCN1C(=O)[C@H](C)NC(=O)[C@H](C)NC(=O)[C@@H]1CCCN1C(=O)[C@@H](NC(=O)[C@@H]1CCCN1C(=O)[C@H](C)NC(=O)[C@H](C)NC(=O)[C@@H]1CCCN1C(=O)[C@@H](N)Cc1ccccc1)[C@@H](C)O)C(=O)O [p53.76.F1111]
- IC50 (B*5401): 0.015 µM
- IC50 (B*5301): 3.21 µM

Compound: CC[C@H](C)[C@H](NC(=O)[C@@H]1CCCN1C(=O)[C@H](C)NC(=O)[C@H](C)NC(=O)[C@@H]1CCCN1C(=O)[C@@H](NC(=O)[C@@H]1CCCN1C(=O)[C@@H](N)Cc1ccccc1)[C@@H](C)O)C(=O)O [p53.79.F118]
- IC50 (B*3501): 5.14 µM
- IC50 (B*5401): 0.0077 µM
- IC50 (HLA-B*0702): 0.09 µM
- IC50 (B*5301): 6.2 µM

Compound: CC(C)C[C@H](NC(=O)[C@@H]1CCCN1C(=O)[C@H](Cc1c[nH]c2ccccc12)NC(=O)[C@H](CO)NC(=O)[C@@H]1CCCN1C(=O)[C@H](C)NC(=O)[C@@H]1CCCN1C(=O)[C@H](C)NC(=O)[C@@H]1CCCN1C(=O)[C@@H](N)Cc1ccccc1)C(=O)O [p53.84.F1]
- IC50 (B*3501): 0.0051 µM
- IC50 (B*5401): 0.0017 µM

Compound: CC[C@H](C)[C@H](NC(=O)[C@H](CO)NC(=O)[C@@H]1CCCN1C(=O)[C@H](C)NC(=O)[C@@H]1CCCN1C(=O)[C@H](C)NC(=O)[C@@H]1CCCN1C(=O)[C@@H](N)Cc1ccccc1)C(=O)O [p53.84.F118]
- IC50 (B*3501): 0.327 µM
- IC50 (B*5401): 0.0067 µM
- IC50 (B*5301): 0.131 µM

Compound: CC[C@H](C)[C@H](NC(=O)[C@@H]1CCCN1C(=O)[C@H](Cc1c[nH]c2ccccc12)NC(=O)[C@H](CO)NC(=O)[C@@H]1CCCN1C(=O)[C@H](C)NC(=O)[C@@H]1CCCN1C(=O)[C@H](C)NC(=O)[C@@H]1CCCN1C(=O)[C@@H](N)Cc1ccccc1)C(=O)O [p53.84.F1110]
- IC50 (B*5401): 0.0012 µM
- IC50 (HLA-B*0702): 0.013 µM
- IC50 (B*5301): 0.042 µM

Compound: CC(C)C[C@H](NC(=O)[C@@H]1CCCN1C(=O)[C@H](Cc1c[nH]c2ccccc12)NC(=O)[C@H](CO)NC(=O)[C@@H]1CCCN1C(=O)[C@H](C)NC(=O)[C@@H]1CCCN1C(=O)[C@@H](N)Cc1ccccc1)C(=O)O [p53.86.F1]
- IC50 (B*3501): 0.0031 µM
- IC50 (B*5401): 0.0091 µM
- IC50 (HLA-B*0702): 0.01 µM
- IC50 (B*5301): 0.004 µM

Compound: CC(C)C[C@H](NC(=O)[C@@H]1CCCN1C(=O)[C@H](Cc1c[nH]c2ccccc12)NC(=O)[C@H](CO)NC(=O)[C@@H]1CCCN1C(=O)[C@@H](N)Cc1ccccc1)C(=O)N[C@@H](CO)C(=O)N[C@@H](CO)C(=O)N[C@@H](CO)C(=O)N[C@H](C(=O)O)C(C)C [p53.88.F1]
- IC50 (B*3501): 0.072 µM
- IC50 (B*5401): 0.0003 µM
- IC50 (HLA-B*0702): 0.0032 µM
- IC50 (B*5301): 0.093 µM

Compound: CC[C@H](C)[C@H](NC(=O)[C@H](CO)NC(=O)[C@H](CO)NC(=O)[C@H](CO)NC(=O)[C@H](CC(C)C)NC(=O)[C@@H]1CCCN1C(=O)[C@H](Cc1c[nH]c2ccccc12)NC(=O)[C@H](CO)NC(=O)[C@@H]1CCCN1C(=O)[C@@H](N)Cc1ccccc1)C(=O)O [p53.88.F1110]
- IC50 (B*3501): 0.1 µM
- IC50 (B*5401): 0.0024 µM
- IC50 (HLA-B*0702): 0.0055 µM
- IC50 (B*5301): 0.0085 µM

Compound: CC[C@H](C)[C@H](NC(=O)[C@@H](NC(=O)[C@@H](NC(=O)[C@@H](NC(=O)[C@@H](NC(=O)[C@H](CC(C)C)NC(=O)[C@@H](NC(=O)[C@@H]1CCCN1C(=O)[C@@H](N)Cc1ccccc1)[C@@H](C)CC)[C@@H](C)O)[C@@H](C)CC)[C@@H](C)CC)[C@@H](C)O)C(=O)O [p53.249.F119]
- IC50 (B*3501): 0.036 µM
- IC50 (B*5401): 0.0018 µM
- IC50 (HLA-B*0702): 0.074 µM
- IC50 (B*5301): 0.004 µM

Compound: FPAAPTPAI [p53.76.F119]
- IC50 (B*3501): 0.012 µM
- IC50 (B*5401): 0.0025 µM
- IC50 (HLA-B*0702): 0.0026 µM
- IC50 (B*5301): 0.0072 µM

Compound: FPAPSWPI [p53.86.F118]
- IC50 (B*3501): 0.0048 µM
- IC50 (B*5401): 0.0016 µM
- IC50 (HLA-B*0702): 0.12 µM
- IC50 (B*5301): 0.0033 µM

Compound: FPILTIITL [p53.249.F1]
- IC50 (B*3501): 0.008 µM
- IC50 (B*5401): 0.005 µM
- IC50 (HLA-B*0702): 0.0065 µM
- IC50 (B*5301): 0.0072 µM
